Experiments:
[1] = test system: MCF-7 (human breast cancer cell line); assay: MTT anti-proliferative assay, MCF-7; format: cell-based; conditions: means ± SD, n = 3; for IC50: Homo sapiens, MCF7, 48 h incubation
Excerpt: (§1) The anti-proliferative activities against five human cancer cell lines, including HCT116 (human colorectal cancer cell line), MCF-7 (human breast cancer cell line), SW620 (human colorectal cancer cell line), BEL7402 (human hepatocellular carcinoma cell line), and HepG2 (human hepatocellular carcinoma cell line) were established for all the target compounds using the MTT assay.
(§2) The propidium iodide (PI) and Annexin V-FITC apoptosis detection kit were purchased from Invitrogen (Eugene, OR, United States). 3-(4,5-Dimethylthiazol-2-yl)-2,5-diphenyl-2H-tetrazolium bromide (MTT) was purchased from Sigma-Aldrich Co. (St. Louis, MO, United States). All human cell lines were used in this study, colorectal cancer cell HCT116, colorectal cancer cell SW620, breast cancer cell MCF-7, liver hepatocellular carcinoma cell BEL7402, liver hepatocellular carcinoma HepG2 and normal liver cell L02 were initially purchased from American Type Culture Collection (ATCC, Manassas, VA, United States). RPMI-1640 media, Dulbecco’s modified Eagle’s medium (DMEM), and foetal bovine serum (FBS) were provided from Gibco Company (Grand Island, NY, United States). Cell line MCF-7 and HepG2 were cultivated in DMEM containing 10% (v/v) heat-inactivated FBS, 100 units/ml penicillin and […] streptomycin (Grand Island, NY, United States). Cell lines HCT116, BEL7402, SW620, and L02 were cultivated in RPMI 1640 medium containing 10% (v/v) heat-inactivated FBS, 100 units/ml penicillin, and […] streptomycin. The cells were incubated at 37°C under a 5% CO2 and 90% relative humidity (RH) atmosphere.
(§3) Stock solutions were prepared by diluting target compounds in DMSO at concentrations (1.25, 2.5, 5, and 10 mM). The stock solution was then diluted (1.25, 2.5, 5, and 10 μM) with culture medium, and the concentration of DMSO was controlled not to exceed 0.1%.
(§4) Place the cells in a 96-well plate at an appropriate density to ensure exponential growth (1 × 10^4–1.2×10^4 cells per well) throughout the experiment, and then allow the cells to adhere for 24 h. The cells were then treated with continuous concentrations of each compound (1.25, 2.5, 5, and 10 μM) for 48 h. After 48 h of incubation, 15 μl of MTT solution was added to each well, and the final concentration was 2 mg/ml. Then incubate for another 4 h. After incubation, remove the MTT solution and add […] of DMSO to each well for staining. Shake vigorously for 10 min at room temperature to ensure complete dissolution. The optical density (OD) was read on a microplate reader (ELx 800, BioTek, Highland Park, Winooski, VT, United States) with a wavelength of 492 nm, and then the data was analyzed.

[2] = test system: SW620 (human colorectal cancer cell line); assay: MTT anti-proliferative assay, SW620; format: cell-based; conditions: means ± SD, n = 3; for IC50: Homo sapiens, SW-620, 48 h incubation
Excerpt: as §1, §2, §3, §4

[3] = test system: BEL7402 (human hepatocellular carcinoma cell line); assay: MTT anti-proliferative assay, BEL7402; format: cell-based; conditions: means ± SD, n = 3; for IC50: Homo sapiens, Bel-7402, 48 h incubation
Excerpt: as §1, §2, §3, §4

[4] = test system: HepG2 (human hepatocellular carcinoma cell line); assay: MTT anti-proliferative assay, HepG2; format: cell-based; conditions: means ± SD, n = 3; for IC50: Homo sapiens, HepG2, 48 h incubation
Excerpt: as §1, §2, §3, §4

[5] = test system: HCT116 (human colorectal cancer cell line); assay: MTT anti-proliferative assay, HCT116; format: cell-based; conditions: means ± SD, n = 3; for IC50: Homo sapiens, HCT-116, 48 h incubation
Excerpt: as §1, §2, §3, §4

Row | IC50 [1] | melting point | IC50 [2] | IC50 [3] | IC50 [4] | IC50 [5] | IC50 values MCF-7 ([1]; 48 h incubation) | IC50 values SW620 ([2]; 48 h incubation) | IC50 values BEL7402 ([3]; 48 h incubation) | IC50 values HepG2 ([4]; 48 h incubation) | IC50 values HCT116 ([5]; 48 h incubation) | SMILES
1 | > 10 µM | 176 to 178 °C | > 10 µM | > 10 µM | > 10 µM | > 10 µM |  |  |  |  |  | CC1(C)CC[C@]2(C(=O)OCCn3ncn(-c4ccc(F)cc4)c3=O)[C@H](O)C[C@]3(C)C(=CC[C@@H]4[C@@]5(C)CC[C@H](O)[C@@](C)(C=O)[C@@H]5CC[C@]43C)[C@@H]2C1 [Compound C2, 2-(4-(4-fluorophenyl)-5-oxo-4,5-dihydro-1H-1,2,4-triazol-1-yl)ethyl (4aR,5R,6aS,6bR,8aR,9S,10S,12aR,12bR,14bS)-9-formyl-5,10-dihydroxy-2,2,6a,6b,9,12a-hexamethyl-1,3,4,5,6,6a,6b,7,8,8a,9,10,11,12,12a,12b,13,14b-octadecahydropicene-4a (2H)-carboxylate]
2 | > 10 µM | 186 to 188 °C | 8.96 ± 1.78 µM | > 10 µM | 8.28 ± 2.1 µM | 3.61 ± 1.01 µM |  |  |  |  |  | CC1(C)CC[C@]2(C(=O)OCc3cn(-c4ccccc4)nn3)[C@H](O)C[C@]3(C)C(=CC[C@@H]4[C@@]5(C)CC[C@H](O)[C@@](C)(C=O)[C@@H]5CC[C@]43C)[C@@H]2C1 [Compound A1, (1-phenyl-1H-1,2,3-triazol-4-yl)methyl (4aR,5R,6aS,6bR,8aR,9S,10S,12aR,12bR,14bS)-9-formyl-5,10-dihydroxy-2,2,6a,6b,9,12a-hexamethyl-1,3,4,5,6,6a,6b,7,8,8a,9,10,11,12,12a,12b,13,14b-octadecahydropicene-4a (2H)-carboxylate]
3 | > 10 µM |  | > 10 µM | > 10 µM | > 10 µM | > 10 µM |  |  |  |  |  | CC1(C)CC[C@]2(C(=O)O)[C@H](O)C[C@]3(C)C(=CC[C@@H]4[C@@]5(C)CC[C@H](O)[C@@](C)(C=O)[C@@H]5CC[C@]43C)[C@@H]2C1 [QA, quillaic acid]
4 | > 10 µM | 193 to 194 °C | > 10 µM | > 10 µM | > 10 µM | > 10 µM |  |  |  |  |  | CC1(C)CC[C@]2(C(=O)OCc3cn(-c4ccc(Cl)cc4)nn3)[C@H](O)C[C@]3(C)C(=CC[C@@H]4[C@@]5(C)CC[C@H](O)[C@@](C)(C=O)[C@@H]5CC[C@]43C)[C@@H]2C1 [Compound A3, (1-(4-chlorophenyl)-1H-1,2,3-triazol-4-yl)methyl (4aR,5R,6aS,6bR,8aR,9S,10S,12aR,12bR,14bS)-9-formyl-5,10-dihydroxy-2,2,6a,6b,9,12a-hexamethyl-1,3,4,5,6,6a,6b,7,8,8a,9,10,11,12,12a,12b,13,14b-octadecahydropicene-4a (2H)-carboxylate]
5 | > 10 µM | 187 to 189 °C | > 10 µM | > 10 µM | > 10 µM | > 10 µM |  |  |  |  |  | CC1(C)CC[C@]2(C(=O)OCCn3ncn(-c4ccc(Cl)c(Cl)c4)c3=O)[C@H](O)C[C@]3(C)C(=CC[C@@H]4[C@@]5(C)CC[C@H](O)[C@@](C)(C=O)[C@@H]5CC[C@]43C)[C@@H]2C1 [Compound C4, 2-(4-(3,4-dichlorophenyl)-5-oxo-4,5-dihydro-1H-1,2,4-triazol-1-yl)ethyl (4aR,5R,6aS,6bR,8aR,9S,10S,12aR,12bR,14bS)-9-formyl-5,10-dihydroxy-2,2,6a,6b,9,12a-hexamethyl-1,3,4,5,6,6a,6b,7,8,8a,9,10,11,12,12a,12b,13,14b-octadecahydropicene-4a (2H)-carboxylate]
6 | > 10 µM | 176 to 178 °C | > 10 µM | > 10 µM | > 10 µM | > 10 µM | no strong activity | no strong activity | no strong activity | no strong activity | no strong activity | CC1(C)CC[C@]2(C(=O)OCc3cc(-c4ccccc4)no3)[C@H](O)C[C@]3(C)C(=CC[C@@H]4[C@@]5(C)CC[C@H](O)[C@@](C)(C=O)[C@@H]5CC[C@]43C)[C@@H]2C1 [D, (3-phenylisoxazol-5-yl)methyl (4aR,5R,6aS,6bR,8aR,9S,10S,12aR,12bR,14bS)-9-formyl-5,10-dihydroxy-2,2,6a,6b,9,12a-hexamethyl-1,3,4,5,6,6a,6b,7,8,8a,9,10,11,12,12a,12b,13,14b-octadecahydropicene-4a (2H)-carboxylate]
7 | > 10 µM | 130 to 132 °C | > 10 µM | > 10 µM | > 10 µM | > 10 µM |  |  |  |  |  | CC1(C)CC[C@]2(C(=O)OCc3nnc(-c4ccccc4)o3)[C@H](O)C[C@]3(C)C(=CC[C@@H]4[C@@]5(C)CC[C@H](O)[C@@](C)(C=O)[C@@H]5CC[C@]43C)[C@@H]2C1 [Compound B1, (5-phenyl-1,3,4-oxadiazol-2-yl)methyl (4aR,5R,6aS,6bR,8aR,9S,10S,12aR,12bR,14bS)-9-formyl-5,10-dihydroxy-2,2,6a,6b,9,12a-hexamethyl-1,3,4,5,6,6a,6b,7,8,8a,9,10,11,12,12a,12b,13,14b-octadecahydropicene-4a (2H)-carboxylate]
8 | > 10 µM |  | > 10 µM | > 10 µM | > 10 µM | > 10 µM |  |  |  |  |  | COc1ccc(-n2cc(COC(=O)[C@]34CCC(C)(C)C[C@H]3C3=CC[C@@H]5[C@@]6(C)CC[C@H](O)[C@@](C)(C=O)[C@@H]6CC[C@@]5(C)[C@]3(C)C[C@H]4O)nn2)cc1OC [Compound A7, (1-(3,4-dimethoxyphenyl)-1H-1,2,3-triazol-4-yl)methyl (4aR,5R,6aS,6bR,8aR,9S,10S,12aR,12bR,14bS)-9-formyl-5,10-dihydroxy-2,2,6a,6b,9,12a-hexamethyl-1,3,4,5,6,6a,6b,7,8,8a,9,10,11,12,12a,12b,13,14b-octadecahydropicene-4a (2H)-carboxylate]
9 | > 10 µM |  | 7.35 ± 1.7 µM | > 10 µM | > 10 µM | 5.6 ± 1.55 µM |  |  |  |  |  | COc1cc(-n2cnn(CCOC(=O)[C@]34CCC(C)(C)C[C@H]3C3=CC[C@@H]5[C@@]6(C)CC[C@H](O)[C@@](C)(C=O)[C@@H]6CC[C@@]5(C)[C@]3(C)C[C@H]4O)c2=O)cc(OC)c1OC [Compound C6, 2-(5-oxo-4-(3,4,5-trimethoxyphenyl)-4,5-dihydro-1H-1,2,4-triazol-1-yl)ethyl (4aR,5R,6aS,6bR,8aR,9S,10S,12aR,12bR,14bS)-9-formyl-5,10-dihydroxy-2,2,6a,6b,9,12a-hexamethyl-1,3,4,5,6,6a,6b,7,8,8a,9,10,11,12,12a,12b,13,14b-octadecahydropicene-4a (2H)-carboxylate]
10 | > 10 µM |  | > 10 µM | > 10 µM | > 10 µM | > 10 µM |  |  |  |  |  | COc1cc(-n2cc(COC(=O)[C@]34CCC(C)(C)C[C@H]3C3=CC[C@@H]5[C@@]6(C)CC[C@H](O)[C@@](C)(C=O)[C@@H]6CC[C@@]5(C)[C@]3(C)C[C@H]4O)nn2)cc(OC)c1OC [Compound A8, (1-(3,4,5-trimethoxyphenyl)-1H-1,2,3-triazol-4-yl)methyl (4aR,5R,6aS,6bR,8aR,9S,10S,12aR,12bR,14bS)-9-formyl-5,10-dihydroxy 2,2,6a,6b,9,12a-hexamethyl-1,3,4,5,6,6a,6b,7,8,8a,9,10,11,12,12a,12b,13,14b octadecahydropicene-4a (2H)-carboxylate]
